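Cells were grown in 96-well plates and exposed to each compound for 48 hours at five concentrations; endpoints were interpolated linearly between bracketing concentrations, or set to the highest concentration if not reached. The concentration for 50% growth inhibition is given as GI50.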 Calls of active or inactive are those of the source. Cut-off read from the data, not from the text of the source: active = GI50 up to about 1.1 µM and inactive = higher.

Some test systems named below: A498; ACHN; CAKI-1; HCT-15; HOP-62; K562; KM12; NCI-H460; OVCAR-3; OVCAR-4; RPMI-8226; SF-539; SK-MEL-2; SNB-19; SW-620; OVCAR-8; UACC-257.
Test in all cases: NCI tumour cell line growth inhibition, 48 h

Take `CC(C)(CCl)NC(=O)c1cccc(C(=O)NC(C)(C)CCl)n1`: the GI50 is > 100 µM (inactive) in the test with A498; > 100 µM (inactive) in the test with ACHN; > 100 µM (inactive) with CAKI-1; > 100 µM in the test with HCT-15; > 100 µM (inactive) with HOP-62; > 100 µM (inactive) with K562. The GI50 with KM12, in the test on NCI-H460, in the test with OVCAR-3, in the test on OVCAR-4, in the test with RPMI-8226 and with SF-539 was > 100 µM (inactive) throughout. Moreover, the GI50 in the test with SK-MEL-2, in the test on SNB-19 and in the test with SW-620 was > 100 µM (inactive) throughout.

Consider `COc1cc([C@@H]2c3cc4c(cc3[C@@H](OC(=O)c3cccc(N)c3)C3COC(=O)[C@@H]32)OCO4)cc(OC)c1O` (some centres not stated), for which the GI50 with A498 is 0.649 µM (active); in the test with ACHN, 1.96 µM (inactive); with CAKI-1, 1.84 µM (inactive); in the test on HCT-15, 13.3 µM; in the test on HOP-62, 2.32 µM (inactive); with K562 it was 2.02 µM (inactive). Moreover, the GI50 in the test with KM12 was 17.8 µM (inactive); in the test with NCI-H460 it was 0.671 µM (active); in the test on OVCAR-3, 34.6 µM (inactive); with OVCAR-4, 42.1 µM (inactive); with OVCAR-8 it was 8.05 µM (inactive); with RPMI-8226 it was 3.86 µM (inactive). The GI50 in the test with SF-539 was 0.621 µM (active); in the test with SK-MEL-2, 14.9 µM (inactive); in the test with SNB-19, 34.8 µM (inactive); with SW-620, 3.33 µM (inactive); with UACC-257, 5.69 µM (inactive).

Take `Cc1cn2c(=O)c3ccccc3nc2s1`: the GI50 in the test with A498, in the test with ACHN, in the test on CAKI-1, in the test on HOP-62, in the test with K562 and in the test on KM12 was > 100 µM (inactive) each time. In addition, the GI50 in the test with NCI-H460 was > 100 µM (inactive); with OVCAR-3 it was > 100 µM (inactive); in the test with OVCAR-4, 76.6 µM (inactive); in the test with OVCAR-8, > 100 µM (inactive); in the test with RPMI-8226 it was > 100 µM (inactive); in the test on SF-539 it was 88.7 µM (inactive). Besides, the GI50 with SK-MEL-2, in the test on SNB-19, in the test with SW-620 and with UACC-257 was > 100 µM (inactive) each time.

With `O=C(Nc1nc2ncn(CCOC(=O)c3ccccc3)c2c(=S)[nH]1)c1ccccc1`, the GI50 is 95.7 µM (inactive) with A498; > 100 µM (inactive) in the test on ACHN; > 100 µM (inactive) with CAKI-1; > 100 µM with HCT-15; 28.2 µM (inactive) with HOP-62; 60.8 µM (inactive) in the test on K562. Further, the GI50 with KM12 is > 100 µM (inactive); with NCI-H460, 48.1 µM (inactive); with OVCAR-3, 43.1 µM (inactive); in the test on OVCAR-4 it was 23.5 µM (inactive); in the test with OVCAR-8, 45.6 µM (inactive); in the test on RPMI-8226 it was > 100 µM (inactive). The GI50 was 30.5 µM (inactive) with SF-539; 41.6 µM (inactive) with SK-MEL-2; 71.9 µM (inactive) with SNB-19; > 100 µM (inactive) in the test with SW-620; 55.8 µM (inactive) in the test on UACC-257.

As for `CN(C)CCNC(=O)c1cccc2cc3c(Cl)cccc3nc12`, the GI50 in the test with A498 is 1.35 µM (inactive); in the test on ACHN, 0.413 µM (active); in the test on CAKI-1, 3.63 µM (inactive); with HCT-15, 1.19 µM; with HOP-62 it was 0.718 µM (active); in the test with K562, 0.946 µM (active). Further, the GI50 with KM12 was 1.31 µM (inactive); with OVCAR-3, 1.82 µM (inactive); in the test with OVCAR-4, 2.02 µM (inactive); in the test on OVCAR-8 it was 1.1 µM (active); in the test with RPMI-8226, 1.64 µM (inactive); in the test with SF-539 it was 0.873 µM (active). In addition, the GI50 in the test on SK-MEL-2 was 1.75 µM (inactive); with SNB-19, 1.71 µM (inactive); with SW-620 it was 0.641 µM (active); in the test on UACC-257, 1.75 µM (inactive).

Regarding `CN(c1ccccc1)c1c(Cl)c(=O)oc2c1ccc1occc12`, the GI50 with A498 is > 100 µM (inactive); in the test with ACHN, > 100 µM (inactive); in the test on CAKI-1 it was 53.3 µM (inactive); in the test with HCT-15, 74 µM; with K562 it was 51.2 µM (inactive); in the test with NCI-H460, > 100 µM (inactive). Besides, the GI50 with OVCAR-3 is > 100 µM (inactive); with OVCAR-4, > 100 µM (inactive); in the test with OVCAR-8, > 100 µM (inactive); with RPMI-8226 it was 86.9 µM (inactive); with SF-539 it was > 100 µM (inactive); in the test on SK-MEL-2, > 100 µM (inactive). In addition, the results for the GI50 in the test with SNB-19, in the test on SW-620 and with UACC-257 were 59.7 µM (inactive), > 100 µM (inactive) and > 100 µM (inactive), respectively.

With `CN=[S+]([O-])(c1ccccc1)c1ccccc1`, the GI50 in the test on A498 was > 100 µM (inactive); in the test with ACHN, > 100 µM (inactive); with CAKI-1, > 100 µM (inactive); with HCT-15, > 100 µM; in the test on HOP-62, > 100 µM (inactive); in the test with K562, > 100 µM (inactive). In addition, the GI50 with KM12, in the test on NCI-H460, with OVCAR-3, in the test with OVCAR-4, in the test on OVCAR-8 and with RPMI-8226 was > 100 µM (inactive) throughout. For the same compound, the GI50 in the test on SF-539, in the test with SK-MEL-2, with SNB-19, in the test on SW-620 and in the test with UACC-257 was > 100 µM (inactive) each time.

In the case of `O=C(N/N=C1\C(=O)N(c2nccs2)C(=O)C(=O)C1c1nc2ccccc2s1)c1ccccc1O` (configuration not stated), the GI50 in the test with A498 is 65.3 µM (inactive); in the test with ACHN it was 28.6 µM (inactive); with CAKI-1, > 100 µM (inactive); with HCT-15, 41.8 µM; in the test with HOP-62, 23.9 µM (inactive); in the test on K562 it was 19.7 µM (inactive). Moreover, the GI50 in the test on KM12 was 54.5 µM (inactive); in the test with NCI-H460 it was 53.3 µM (inactive); with OVCAR-3 it was 35.9 µM (inactive); with OVCAR-4, 39.8 µM (inactive); in the test on OVCAR-8 it was 43 µM (inactive); with RPMI-8226, 61.4 µM (inactive). Moreover, the GI50 with SF-539 was 28.1 µM (inactive); in the test on SK-MEL-2, > 100 µM (inactive); with SNB-19, 60 µM (inactive); in the test on SW-620, 47.9 µM (inactive); in the test on UACC-257, 35.7 µM (inactive).

Take `NC(=S)N/N=C(\CCC(=O)Nc1ccccc1[N+](=O)[O-])CC(=O)c1ccco1`: the GI50 in the test on A498 was 49.3 µM (inactive); in the test with ACHN, > 100 µM (inactive); in the test on CAKI-1, > 100 µM (inactive); with HCT-15, > 100 µM; with HOP-62, > 100 µM (inactive); in the test on K562, > 100 µM (inactive). For the same compound, the GI50 in the test with KM12, with NCI-H460, in the test with OVCAR-3, with OVCAR-4, in the test on OVCAR-8 and with RPMI-8226 was > 100 µM (inactive) each time. Also, the GI50 with SF-539, in the test with SK-MEL-2, in the test with SNB-19, with SW-620 and in the test with UACC-257 was > 100 µM (inactive) in each case.

Turning to `Cc1nc2c(nc1C)C(=O)C1=C(C2=O)C2C=CC1CC2`, the GI50 with A498 is 41.9 µM (inactive); with ACHN, 11.7 µM (inactive); in the test on CAKI-1 it was 18.3 µM (inactive); with HCT-15, 15.1 µM; in the test on HOP-62, 22.3 µM (inactive); with K562 it was 2.48 µM (inactive). For the same compound, the GI50 in the test with KM12 was 13.5 µM (inactive); in the test with NCI-H460, 17.9 µM (inactive); in the test with OVCAR-3 it was 5.83 µM (inactive); in the test on OVCAR-4, 1.93 µM (inactive); with OVCAR-8 it was 3.48 µM (inactive); in the test with RPMI-8226, 2.17 µM (inactive). For the same compound, the GI50 in the test on SF-539 was 13.8 µM (inactive); with SK-MEL-2 it was 13.2 µM (inactive); in the test on SNB-19, 32.6 µM (inactive); in the test on SW-620 it was 2.74 µM (inactive); in the test with UACC-257 it was 4.31 µM (inactive).

As to `Cc1ccc(/N=N/c2c(C)nn(-c3ccccc3)c2C)c(Br)c1`, the GI50 with A498 is > 100 µM (inactive); in the test on ACHN it was > 100 µM (inactive); in the test on CAKI-1 it was > 100 µM (inactive); in the test with HCT-15, 36 µM; in the test on HOP-62, > 100 µM (inactive); in the test on K562 it was 27.3 µM (inactive). The GI50 is 95.5 µM (inactive) in the test on KM12; 62.8 µM (inactive) with NCI-H460; > 100 µM (inactive) in the test with OVCAR-3; > 100 µM (inactive) with OVCAR-4; > 100 µM (inactive) in the test on OVCAR-8; 36 µM (inactive) in the test with RPMI-8226. Moreover, the GI50 was > 100 µM (inactive) in the test on SF-539; > 100 µM (inactive) in the test with SK-MEL-2; > 100 µM (inactive) in the test with SNB-19; 70.8 µM (inactive) with SW-620; 89.7 µM (inactive) in the test on UACC-257.

Regarding `COC(=O)C(=O)C(C#N)c1nc2ccccc2s1` (configuration not stated), the GI50 with A498 is > 100 µM (inactive); in the test with ACHN, > 100 µM (inactive); with CAKI-1 it was > 100 µM (inactive); with HCT-15, 57 µM; in the test with HOP-62, > 100 µM (inactive); with K562 it was 57.4 µM (inactive). In addition, the GI50 is 63.4 µM (inactive) with NCI-H460; > 100 µM (inactive) with OVCAR-3; > 100 µM (inactive) in the test on OVCAR-4; > 100 µM (inactive) with OVCAR-8; > 100 µM (inactive) in the test on RPMI-8226; 98.9 µM (inactive) in the test with SF-539. In addition, the GI50 with SK-MEL-2, in the test with SNB-19, in the test on SW-620 and in the test on UACC-257 was > 100 µM (inactive) in each case.
